From US20240270758A1, “PYRIDINO-OR PYRIMIDO-CYCLIC COMPOUND, PREPARATION METHOD THEREFOR AND MEDICAL USE THEREOF” (Genfleet Therapeutics (Shanghai) Inc., priority 2021, published 2024) come the findings set out here.

pIC50: −log10 of the molar value.

Holding throughout (assay type): cell-based, human
In assay [1] the test system is AsPC-1 cells (KRAS^G12D mutation). The assay is described as follows: Cell proliferation inhibition assay (3D, CellTiter-Glo), AsPC-1. The conditions noted are these: 3D cell model, 5 days. The text has this: (§1) AsPC-1 was purchased from ATCC; Cat. NO.: CRL-1682; AGS was purchased from ATCC; Cat. NO.: CRL-1739; RPMI1640 was purchased from Gibco; Cat. NO.: 11875-093 2235123; F12K was purchased from Gibco; Cat. NO.: 21127-022; FBS was purchased from Gibco; Cat. NO.: 10099-141C; Trypsin (containing EDTA) was purchased from Gibco; Cat. NO.: 25200-072; CellTiter Glo-3D was purchased from Progema; Cat. NO.: G9683; 384-well sphere plates were purchased from coming; Cat. NO.: 3830; White background opaque 384-well plates were purchased from coming; Cat. NO.: 3570; Cell Counters were purchased from CHEMOMETEC; Model NO.: NC-200; microplate reader was purchased from PerkinElmer; Model NO.: Envison;
(§2) AsPC-1 is an endogenous human pancreatic cancer cell containing KRAS^G12D mutation, which is cultured in RPMI-1640 medium containing 10% FBS; AGS human gastric cancer cell line containing KRAS^G12D mutation, cultured in F-12K medium containing 10% FBS. Cells in the logarithmic growth phase were taken, digested with trypsin (containing EDTA), harvested and counted, and inoculated with 800 AsPC-1 cells/well or 400 AGS cells/well, respectively, in 384-well sphere plates and cultured overnight at 5% C02 to establish a 3D cell model. A 3.16-fold gradient concentration stock solution of 1000× compound was prepared using DMSO, diluted 100-fold into a 10× compound stock solution using media, and a 10× compound stock solution was added to each cell culture well the day after cell inoculating at a final concentration of 1× with a DMSO content of 0.1%. DMSO was used as an experimental control (control) and culture medium as a blank control (blank). After the addition of compounds, the cells were cultured for 5 days. […] CellTiter-Glo working solution was added to each well, mixed well, and incubated for 30 min. After standing for 30 min at room temperature, 40 μl of the mixed solution was transferred to a white background opaque 384-well plate. Luminescence chemiluminescence value was read on a microplate reader, and the cell proliferation inhibition ratio was calculated, IR (%)=(RLU control-RLU compound)/(RLU control-RLU blank)×100%. XLFit four-parameter method was used to fit the gradient dilution concentration of compounds and the corresponding cell proliferation inhibition ratio, and the IC50 value was calculated. […] Results for exemplary of the example compounds are shown in Table 3 below. - indicates not detected.
(In general: ATP-based viability assays read luminescence as a measure of living cells.)

Assay [2] concerns AGS cells (KRAS^G12D mutation). Description: Cell proliferation inhibition assay (3D, CellTiter-Glo), AGS. The conditions noted are these: 3D cell model, 5 days.
From the text: as §1, §2

In assay [3] the test system is p-ERK in AGS cells (KRAS^G12D mutation). Description: Cell p-ERK detection assay. As to conditions: 3 h incubation, HTRF. The protocol: AGS was purchased from ATCC; Cat. NO.: CRL-1739; F12K was purchased from Gibco; Cat. NO.: 21127-022; FBS was purchased from Gibco; Cat. NO.: 10099-141C; Trypsin (containing EDTA) was purchased from Gibco; Cat. NO.: 25200-072; DMSO was purchased from VWRAMRESCO; Cat. NO.: 0231-500ML; 96-well cell culture plate was purchased from Corning; Cat. NO.: 3599; An white background opaque 96-well plate was purchased from Cisbio; Cat. NO.: 66PL96025; Advance ERK phospho-T202/Y204 kit was purchased from Cisbio; Cat. NO.: 64AERPEH; Cell Counters were purchased from CHEMOMETEC; Model NO.: NC-200; microplate reader was purchased from PerkinElmer; Model NO.: Envison.
AGS is an endogenous human gastric adenocarcinoma cell line containing KRAS^G12D mutation, cultured in F12K+10% FBS medium. On the first day of the experiment, cells in the logarithmic growth phase were taken, digested with trypsin (containing EDTA), collected, and counted, and approximately 20,000 cells/well were inoculated in 96-well cell culture plates and cultured overnight in a 5% CO2 incubator. A 1000×3.16-fold gradient concentration stock of the compound was prepared using DMSO, diluted 200-fold into a 5× compound stock using the medium described above, and a 5× compound stock was added to each cell culture well the day after cell inoculating at a final concentration of 1× and a DMSO content of 0.1%. DMSO was used as an experimental control. After the compound was added and the incubation was continued for 3 h, the medium in the culture wells was removed, […] of cell lysis solution (from Advance ERK phospho-T202/Y204 kit, the same below) was added to each well, mixed well and incubated for 30 min, then […] of the mixed solution was transferred to a white background opaque 96-well plate, and another well was taken as a blank well with adding […] of cell lysis solution. After the transfer, […] of p-ERK HTRF antibody mixed solution (from Advance ERK phospho-T202/Y204 kit) was added to each well, after incubation for 4 h, HTRF fluorescence value (RLU) was read by a microplate reader, and p-ERK level inhibition ratio of the compound was calculated IR (%)=(RLU control-RLU compound)/(RLU control-RLU blank)×100%, compound concentration and corresponding cell p-ERK level inhibition ratio were fitted using Prism 8 four-parameter method, and IC50 value was calculated.

As usually defined, the pIC50 is the IC50 on a negative log10 scale, so that one unit is a factor of ten. Read a low pIC50 as a high IC50. In the case of `C#Cc1c(F)ccc2cc(O)cc(-c3ncc4c(N5C[C@H]6CC[C@@H](C5)N6)nc(OC[C@@]56CCCN5CC(=C)C6)nc4c3F)c12` [Example Z12, 4-(4-((1R,5S)-3,8-diazabicyclo[3.2.1]octan-3-yl)-8-fluoro-2-(((S)-2-methylenetetrahydro-1H-pyrrolizin-7a(5H)-yl)methoxy)pyrido[4,3-d]pyrimidin-7-yl)-5-ethynyl-6-fluoronaphthalen-2-ol], the pIC50 in assay [1] (Homo sapiens, ASPC1, 120 h) was 7.90; in assay [2] (Homo sapiens, AGS, 120 h), 8.55; in assay [3] (Homo sapiens, AGS, 3 h) it was 8.74.
As for `C#Cc1c(F)ccc2cc(O)cc(-c3ncc4c(N5C[C@H]6CC[C@@H](C5)N6)nc(OCC56CC(=C)CN5CC(=C(F)F)C6)nc4c3F)c12` (stereo partly drawn) [Example Z215], the negative-log IC50 (pIC50) in assay [1] was 7.31; in assay [2] it was 8.29; in assay [3], 8.92.
For `C#Cc1cccc2cc(O)cc(-c3ncc4c(N5C[C@H]6CC[C@@H](C5)[C@H]6O)nc(OC[C@@]56CCCN5C[C@H](F)C6)nc4c3F)c12` [Example Z205-2, (1R, 5S, 8S)-3-(7-(8-ethynyl-3-hydroxynaphthalen-1-yl)-8-fluoro-2-(((2R,7aS)-2-fluorotetrahydro-1H-pyrrolizin-7a(5H)-yl)methoxy)pyrido[4,3-d]pyrimidin-4-yl)-3-azabicyclo[3.2.1]octan-8-ol], in assay [3], the pIC50 is 6.69.
As for `C#Cc1cccc2nc(N)cc(-c3ncc4c(N5CC6CCC(C5)N6)nc(OCC56CC(=C)CN5CC(=C)C6)nc4c3F)c12` [Example Z201, 4-(4-(3,8-diazabicyclo[3.2.1]octan-3-yl)-2-((2,6-dimethylenetetrahydro-1H-pyrrolizin-7a(5H)-yl)methoxy)-8-fluoropyrido[4,3-d]pyrimidin-7-yl)-5-ethynylquinolin-2-amine], the pIC50 in assay [3] (Homo sapiens, AGS, 3 h) was 6.62.
Compound `C#Cc1cccc2c(O)ccc(-c3ncc4c(N5C[C@H]6CC[C@@H](C5)N6)nc(OCC56CC(=C)CN5CC(=C)C6)nc4c3F)c12` [Example Z208, 4-(4-((1R,5S)-3,8-diazabicyclo[3.2.1]octan-3-yl)-2-((2,6-dimethylenetetrahydro-1H-pyrrolizin-7a(5H)-yl)methoxy)-8-fluoropyrido[4,3-d]pyrimidin-7-yl)-5-ethynylnaphthalen-1-ol] showed a pIC50 in assay [3] (Homo sapiens, AGS, 3 h) of 8.04.
For the compound `C#Cc1cccc2cc(N)cc(-c3ncc4c(N5C[C@H]6CC[C@@H](C5)N6)nc(OCC56CC(=C)CN5CC(=C)C6)nc4c3F)c12` [Example Z206, 4-(4-((1R,5S)-3,8-diazabicyclo[3.2.1]octan-3-yl)-2-((2,6-dimethylenetetrahydro-1H-pyrrolizin-7a(5H)-yl)methoxy)-8-fluoropyrido[4,3-d]pyrimidin-7-yl)-5-ethynylnaphthalen-2-amine], the results for the pIC50 in assay [1], in assay [2] and in assay [3] were 7.45, 7.70 and 8.26, respectively.
The compound `C#Cc1cccc2cc(O)cc(-c3ncc4c(N5C[C@H]6CC[C@@H](C5)[C@@H]6O)nc(OC[C@@]56CCCN5C[C@H](F)C6)nc4c3F)c12` [Example Z205-1, (1R,5S,8R)-3-(7-(8-ethynyl-3-hydroxynaphthalen-1-yl)-8-fluoro-2-(((2R,7aS)-2-fluorotetrahydro-1H-pyrrolizin-7a(5H)-yl)methoxy)pyrido[4,3-d]pyrimidin-4-yl)-3-azabicyclo[3.2.1]octan-8-ol] showed a pIC50 in assay [3] of 6.21.
As for `C#Cc1cccc2c(N)ccc(-c3ncc4c(N5CC6CCC(C5)N6)nc(OCC56CC(=C)CN5CC(=C)C6)nc4c3F)c12` [Example Z209], the pIC50 in assay [3] is 6.33.
The compound `C#Cc1cccc2cc(O)cc(-c3ncc4c(N5C[C@H]6CC[C@@H](C5)N6)nc(OCC56CC(=C)CN5[C@@H]5C[C@@H]5C6)nc4c3F)c12` (stereo partly drawn) [Example Z26, 4-(4-((1R,5S)-3,8-diazabicyclo[3.2.1]octan-3-yl)-8-fluoro-2-(((1aR,6aR)-4-methylenehexahydrocyclopropa[b]pyrrolizin-5a(3H)-yl)methoxy)pyrido[4,3-d]pyrimidin-7-yl)-5-ethynylnaphthalen-2-ol] gave a pIC50 in assay [3] (Homo sapiens, AGS, 3 h) of 8.56.
In assay [3], `C#Cc1cccc2cc(O)cc(-c3ncc4c(N5CC6CCC(C6)C5)nc(OC[C@@]56CCCN5C[C@H](F)C6)nc4c3F)c12` [Example Z192, 4-(4-((1R,5S)-3-azabicyclo[3.2.1]octan-3-yl)-8-fluoro-2-(((2R,7aS)-2-fluorotetrahydro-1H-pyrrolin-7a(5H)-yl)methoxy)pyrido[4,3-d]pyrimidin-7-yl)-5-ethynylnaphthalen-2-ol] had a pIC50 of 7.03.
In assay [3] (Homo sapiens, AGS, 3 h), `C#Cc1cccc2c(F)c(O)cc(-c3ncc4c(N5CC6CCC(C5)N6)nc(OCC56CC(=C)CN5CC(=C)C6)nc4c3F)c12` [Example Z203, 4-(4-(3,8-diazabicyclo[3.2.1]octan-3-yl)-2-((2,6-dimethylenetetrahydro-1H-pyrrolizin-7a(5H)-yl)methoxy)-8-fluoropyrido[4,3-d]pyrimidin-7-yl)-5-ethynyl-1-fluoronaphthalen-2-ol] showed a negative-log IC50 (pIC50) of 7.59.
For `C#Cc1cccc2cc(O)cc(-c3cc4nc(OCC56CCCN5CC(=C)C6)nc(N5CC6CCC(C5)N6)c4cn3)c12` (stereo not drawn) [Example Z191, 4-(4-(3,8-diazabicyclo[3.2.1]octan-3-yl)-2-((2-methylenetetrahydro-1H-pyrrolizin-7a(5H)-yl)methoxy)pyrido[4,3-d]pyrimidin-7-yl)-5-ethynylnaphthalen-2-ol], the pIC50 in assay [3] (Homo sapiens, AGS, 3 h) was 6.21.
In turn, `C#Cc1cc(F)cc2cccc(-c3ncc4c(N5CC6CCC(C5)N6)nc(OCC56CC(=C)CN5CC(=C)C6)nc4c3F)c12` [Example Z198] gave a pIC50 in assay [3] of 7.05.
Take `C#Cc1cccc2cccc(-c3c(Cl)cc4c(N5C[C@H]6CC[C@@H](C5)N6)nc(OCC56CCCN5CC(=C)C6)nc4c3F)c12` (stereo partly drawn) [Example Z193, 4-((1R,5S)-3,8-diazabicyclo[3.2.1]octan-3-yl)-6-chloro-7-(8-ethynylnaphthalen-1-yl)-8-fluoro-2-((2-methylenetetrahydro-1H-pyrrolizin-7a(5H)-yl)methoxy)quinazoline]: in assay [3] (Homo sapiens, AGS, 3 h), the negative-log IC50 (pIC50) was 6.21.
As to `C#Cc1c(Cl)ccc2cccc(-c3ncc4c(N5C[C@H]6CC[C@@H](C5)N6)nc(OCC56CC(=C)CN5CC(=C)C6)nc4c3F)c12` [Example Z195, 4-((1R,5S)-3,8-diazabicyclo[3.2.1]octan-3-yl)-7-(7-chloro-8-ethynylnaphthalen-1-yl)-2-((2,6-dimethylenetetrahydro-1H-pyrrolizin-7a(5H)-yl)methoxy)-8-fluoropyrido[4,3-d]pyrimidine], in assay [3] (Homo sapiens, AGS, 3 h), the negative-log IC50 (pIC50) is 6.79.
